Our source for the IC50 values is patent publication US11407767B2, “Heterocyclyl substituted pyrrolopyridines that are inhibitors of the CDK12 kinase” (The University of Nottingham, priority 2017, dated 2022).

SMILES strings stand for the structures.

CDK12/CycK, sequence (Q9NYV4 whole entry): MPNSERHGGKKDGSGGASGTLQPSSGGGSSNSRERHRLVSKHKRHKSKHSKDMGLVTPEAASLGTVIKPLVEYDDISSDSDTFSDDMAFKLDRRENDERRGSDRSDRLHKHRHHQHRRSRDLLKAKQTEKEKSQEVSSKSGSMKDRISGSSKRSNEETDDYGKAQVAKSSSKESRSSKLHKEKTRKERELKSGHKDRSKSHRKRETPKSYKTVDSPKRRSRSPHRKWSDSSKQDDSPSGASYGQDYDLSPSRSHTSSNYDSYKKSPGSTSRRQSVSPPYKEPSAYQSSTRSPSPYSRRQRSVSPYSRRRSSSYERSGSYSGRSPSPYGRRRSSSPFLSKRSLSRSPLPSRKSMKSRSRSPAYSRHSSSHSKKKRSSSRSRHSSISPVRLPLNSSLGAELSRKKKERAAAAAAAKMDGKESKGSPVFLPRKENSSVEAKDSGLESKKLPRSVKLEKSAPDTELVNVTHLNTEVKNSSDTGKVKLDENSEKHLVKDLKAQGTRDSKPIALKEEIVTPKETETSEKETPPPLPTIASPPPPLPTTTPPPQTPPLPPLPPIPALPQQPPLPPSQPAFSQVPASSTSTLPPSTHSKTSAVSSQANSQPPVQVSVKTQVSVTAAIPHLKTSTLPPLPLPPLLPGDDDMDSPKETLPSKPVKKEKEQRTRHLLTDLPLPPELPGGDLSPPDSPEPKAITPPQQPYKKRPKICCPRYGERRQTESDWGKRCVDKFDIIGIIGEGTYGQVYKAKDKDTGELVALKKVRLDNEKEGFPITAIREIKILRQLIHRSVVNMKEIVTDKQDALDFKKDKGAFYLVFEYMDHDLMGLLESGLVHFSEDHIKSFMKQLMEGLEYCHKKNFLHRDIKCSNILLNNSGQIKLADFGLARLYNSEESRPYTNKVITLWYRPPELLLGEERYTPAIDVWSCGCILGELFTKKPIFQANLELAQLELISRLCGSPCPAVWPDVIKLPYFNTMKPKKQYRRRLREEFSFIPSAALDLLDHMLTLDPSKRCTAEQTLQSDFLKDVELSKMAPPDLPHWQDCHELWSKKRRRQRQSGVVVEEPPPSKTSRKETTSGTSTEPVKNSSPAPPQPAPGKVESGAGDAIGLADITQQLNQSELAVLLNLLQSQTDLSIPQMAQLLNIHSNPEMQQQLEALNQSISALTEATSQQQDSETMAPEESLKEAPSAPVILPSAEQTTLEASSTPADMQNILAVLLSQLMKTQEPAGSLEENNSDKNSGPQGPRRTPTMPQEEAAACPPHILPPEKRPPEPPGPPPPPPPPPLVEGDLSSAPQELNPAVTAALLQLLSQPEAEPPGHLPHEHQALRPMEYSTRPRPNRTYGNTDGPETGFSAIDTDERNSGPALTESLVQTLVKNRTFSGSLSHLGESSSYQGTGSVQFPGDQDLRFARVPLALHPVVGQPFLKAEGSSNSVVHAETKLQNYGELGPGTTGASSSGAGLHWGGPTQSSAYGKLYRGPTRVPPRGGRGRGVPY
CDK12/CycK, sequence (O75909 whole entry partner): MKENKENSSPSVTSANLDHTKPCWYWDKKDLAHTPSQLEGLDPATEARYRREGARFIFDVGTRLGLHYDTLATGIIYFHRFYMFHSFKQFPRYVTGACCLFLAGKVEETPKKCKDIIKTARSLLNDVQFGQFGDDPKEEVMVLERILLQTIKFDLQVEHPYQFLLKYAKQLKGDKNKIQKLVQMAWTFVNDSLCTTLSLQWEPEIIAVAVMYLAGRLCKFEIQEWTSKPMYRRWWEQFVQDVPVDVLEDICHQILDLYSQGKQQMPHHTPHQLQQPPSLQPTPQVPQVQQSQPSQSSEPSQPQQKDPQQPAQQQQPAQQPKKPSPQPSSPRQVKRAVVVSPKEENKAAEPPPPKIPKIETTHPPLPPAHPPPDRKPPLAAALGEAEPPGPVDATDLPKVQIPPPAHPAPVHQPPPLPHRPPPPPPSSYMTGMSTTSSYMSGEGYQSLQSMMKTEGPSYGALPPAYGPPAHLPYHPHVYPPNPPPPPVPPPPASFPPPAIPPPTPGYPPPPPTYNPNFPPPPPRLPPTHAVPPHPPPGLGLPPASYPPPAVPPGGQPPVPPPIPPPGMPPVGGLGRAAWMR

For the assay, the target named is CDK12/CycK (Homo sapiens, UniProt Q9NYV4). Kind of assay: Inhibition of CDK12 (ADP-Glo kinase assay). The format is biochemical. Conditions: 60 nM CDK12/CycK, 30 minutes pre-incubation, 1 μM ATP, 0.5 μM RBER-IRStide substrate, 1 h at 25° C., read-out: CDK12/cyclin K IC50. On the procedure:
Assay buffer comprised 50 mM HEPES pH 7.5, 1 mM DTT, 20 mM MgCl2, 3 mM MnCl2, 3 μM Na3VO4 and 50 μg/ml PEG8000. Kinase reactions were carried out in 384-well Optiplates™ (PerkinElmer 6007299). Test compounds were dissolved & diluted in dimethyl sulfoxide (DMSO) and cross diluted into assay buffer with a final DMSO concentration of 1% (v/v) in the assay. Test compounds (or 1% DMSO in control and blank wells) were pre-incubated with 60 nM CDK12/CycK for 30 minutes. After this time 1 μM Adenosine-5′-triphosphate (ATP) and 0.5 μM RBER-IRStide substrate (ProQinase 0863-0000-1) were added to commence the kinase reaction. Incubations were carried out for 1 h at 25° C. with kinase activity determined using the ADP-Glo™ reagent from Promega according to the manufacturer's instructions. Light generated is proportional to kinase activity and measured using a luminometer (EnVision, PerkinElmer). The signal obtained in the blank wells (containing no kinase) was subtracted from all other wells and IC50 values were determined by fitting a sigmoidal curve to % inhibition of control versus Log10 compound concentration.
On the technique in general: ADP-Glo turns the ADP formed in a reaction into a luminescent signal.
For the compound `C=CC(=O)N1CCC[C@H]1C(=O)NCCc1cc2c(-c3ccnn3C)ccnc2[nH]1` [Example 51, (S)-1-Acryloyl-N-(2-(4-(1-methyl-1H-pyrazol-5-yl)-1H-pyrrolo[2,3-b]pyridin-2-yl)ethyl)pyrrolidine-2-carboxamide], the IC50 was 1000 to 30000 nM.
With `C=CC(=O)N1CCC[C@@H]1C(=O)NCCc1cc2c(-c3ccnn3C)ccnc2[nH]1` [Example 52, (R)-1-Acryloyl-N-(2-(4-(1-methyl-1H-pyrazol-5-yl)-1H-pyrrolo[2,3-b]pyridin-2-yl)ethyl)pyrrolidine-2-carboxamide] the figure was 1000 to 30000 nM.
The value for `C=CC(=O)N1CCC[C@H]1C(=O)NCCc1cc2c(-c3cnn4ncccc34)c(Cl)cnc2[nH]1` [Example 53, (S)-1-Acryloyl-N-(2-(5-chloro-4-(pyrazolo[1,5-b]pyridazin-3-yl)-1H-pyrrolo[2,3-b]pyridin-2-yl)ethyl)pyrrolidine-2-carboxamide] was < 100 nM; that for `C=CC(=O)Nc1cccc(C(=O)NCCc2cc3c(-c4cnn5ncccc45)c(Cl)cnc3[nH]2)c1` [Example 56, 3-Acrylamido-N-(2-(5-chloro-4-(pyrazolo[1,5-b]pyridazin-3-yl)-1H-pyrrolo[2,3-b]pyridin-2-yl)ethyl)benzamide] was < 100 nM.
Turning to `C=CC(=O)N[C@H]1COC[C@@H]1C(=O)NCc1cc2c(-c3cnn4ncccc34)ccnc2[nH]1` [Example 58, (3R,4R)-4-Acrylamido-N-((4-(pyrazolo[1,5-b]pyridazin-3-yl)-1H-pyrrolo[2,3-b]pyridin-2-yl)methyl)tetrahydrofuran-3-carboxamide], the IC50 lay in the range of 1000 to 30000 nM.
The value for `C=CC(=O)N[C@@H]1CC[C@@H](C(=O)NCc2cc3c(-c4cnn5ncccc45)ccnc3[nH]2)C1` [Example 59, (1R,3R)-3-Acrylamido-N-((4-(pyrazolo[1,5-b]pyridazin-3-yl)-1H-pyrrolo[2,3-b]pyridin-2-yl)methyl)cyclopentane-1-carboxamide] was 1000 to 30000 nM.
The value for `C=CC(=O)N1CCOC(C(=O)NCCc2cc3c(-c4cnn5ncccc45)ccnc3[nH]2)C1` (stereo not drawn) [Example 60, 4-Acryloyl-N-(2-(4-(pyrazolo[1,5-b]pyridazin-3-yl)-1H-pyrrolo[2,3-b]pyridin-2-yl)ethyl)morpholine-2-carboxamide] was < 100 nM; that for `C=CC(=O)N[C@@H]1CC[C@@H](C(=O)NCCc2cc3c(-c4cnn5ncccc45)ccnc3[nH]2)C1` [Example 64, (1R,3R)-3-Acrylamido-N-(2-(4-(pyrazolo[1,5-b]pyridazin-3-yl)-1H-pyrrolo[2,3-b]pyridin-2-yl)ethyl)cyclopentane-1-carboxamide] was 100 to 1000 nM; that for `C=CC(=O)Nc1cncc(C(=O)N2CCC(c3cc4c(-c5cnn6ncccc56)ccnc4[nH]3)C2)c1` (stereo not drawn) [Example 65, N-(5-(3-(4-(Pyrazolo[1,5-b]pyridazin-3-yl)-1H-pyrrolo[2,3-b]pyridin-2-yl)pyrrolidine-1-carbonyl)pyridin-3-yl)acrylamide] was < 100 nM.
The value for `CN(C)C/C=C/C(=O)N1CCC(C(=O)N2CCC(c3cc4c(-c5cnn6ncccc56)ccnc4[nH]3)CC2)CC1` [Example 66, (E)-4-(Dimethylamino)-1-(4-(4-(4-(pyrazolo[1,5-b]pyridazin-3-yl)-1H-pyrrolo[2,3-b]pyridin-2-yl)piperidine-1-carbonyl)piperidin-1-yl)but-2-en-1-one] was < 100 nM; that for `CN(C)C/C=C/C(=O)N1CC[C@@H](C(=O)N2CCC(c3cc4c(-c5cnn6ncccc56)ccnc4[nH]3)CC2)C1` [Example 67, (R,E)-4-(Dimethylamino)-1-(3-(4-(4-(pyrazolo[1,5-b]pyridazin-3-yl)-1H-pyrrolo[2,3-b]pyridin-2-yl)piperidine-1-carbonyl)pyrrolidin-1-yl)but-2-en-1-one] was < 100 nM.
As for `CN(C)C/C=C/C(=O)Nc1cncc(C(=O)N2CC[C@H](c3cc4c(-c5cnn6ncccc56)ccnc4[nH]3)C2)c1` [Example 68, (S,E)-4-(Dimethylamino)-N-(5-(3-(4-(pyrazolo[1,5-b]pyridazin-3-yl)-1H-pyrrolo[2,3-b]pyridin-2-yl)pyrrolidine-1-carbonyl)pyridin-3-yl)but-2-enamide], the IC50 is < 100 nM.
The value for `C=CC(=O)N1CCCC(C(=O)NCCc2cc3c(-c4cnn5ncccc45)ccnc3[nH]2)C1` (stereo not drawn) [Example 75, 1-Acryloyl-N-(2-(4-(pyrazolo[1,5-b]pyridazin-3-yl)-1H-pyrrolo[2,3-b]pyridin-2-yl)ethyl)piperidine-3-carboxamide] was < 100 nM; that for `C=CC(=O)N1CCC(C(=O)NCCc2cc3c(-c4cnn5ncccc45)ccnc3[nH]2)CC1` [Example 77, 1-Acryloyl-N-(2-(4-(pyrazolo[1,5-b]pyridazin-3-yl)-1H-pyrrolo[2,3-b]pyridin-2-yl)ethyl)piperidine-4-carboxamide] was 100 to 1000 nM.
With `O=C(NCCc1cc2c(-c3cnn4ncccc34)ccnc2[nH]1)[C@@H]1CCCN1C(=O)CO` [Example 78, (S)-1-(2-Hydroxyacetyl)-N-(2-(4-(pyrazolo[1,5-b]pyridazin-3-yl)-1H-pyrrolo[2,3-b]pyridin-2-yl)ethyl)pyrrolidine-2-carboxamide] the figure was 100 to 1000 nM.
Turning to `O=C(NCCc1cc2c(-c3cnn4ncccc34)ccnc2[nH]1)[C@H]1CCCN1C(=O)CO` [Example 79, (R)-1-(2-Hydroxyacetyl)-N-(2-(4-(pyrazolo[1,5-b]pyridazin-3-yl)-1H-pyrrolo[2,3-b]pyridin-2-yl)ethyl)pyrrolidine-2-carboxamide], the IC50 lay in the range of 100 to 1000 nM.
The value for `C=CC(=O)N1CCC(C(=O)NCc2cc3c(-c4cnn5ncccc45)ccnc3[nH]2)CC1` [Example 80, 1-Acryloyl-N-((4-(pyrazolo[1,5-b]pyridazin-3-yl)-1H-pyrrolo[2,3-b]pyridin-2-yl)methyl)piperidine-4-carboxamide] was 1000 to 30000 nM.
With `CCOCCC(=O)Nc1ccc(C(=O)NCCc2cc3c(-c4cnn5ncccc45)ccnc3[nH]2)cc1` [Example 81, 4-(3-Ethoxypropanamido)-N-(2-(4-(pyrazolo[1,5-b]pyridazin-3-yl)-1H-pyrrolo[2,3-b]pyridin-2-yl)ethyl)benzamide] the figure was < 100 nM; with `O=C(NCCc1cc2c(-c3cnn4ncccc34)ccnc2[nH]1)[C@@H]1CCCN1` [Example 82, (S)—N-(2-(4-(pyrazolo[1,5-b]pyridazin-3-yl)-1H-pyrrolo[2,3-b]pyridin-2-yl)ethyl)pyrrolidine-2-carboxamide], 100 to 1000 nM.
The value for `O=C(NCCc1cc2c(-c3cnn4ncccc34)ccnc2[nH]1)[C@@H]1CCCN1C(=O)/C=C/CN1CCCC1` [Example 85, (S,E)-N-(2-(4-(pyrazolo[1,5-b]pyridazin-3-yl)-1H-pyrrolo[2,3-b]pyridin-2-yl)ethyl)-1-(4-(pyrrolidin-1-yl)but-2-enoyl)pyrrolidine-2-carboxamide] was 1000 to 30000 nM; that for `O=C(NCCc1cc2c(-c3cnn4ncccc34)ccnc2[nH]1)[C@@H]1CCCN1C(=O)/C=C/CN1CCOCC1` [Example 86, (S,E)-1-(4-Morpholinobut-2-enoyl)-N-(2-(4-(pyrazolo[1,5-b]pyridazin-3-yl)-1H-pyrrolo[2,3-b]pyridin-2-yl)ethyl)pyrrolidine-2-carboxamide] was 1000 to 30000 nM.
